Data as given in patent publication US20030220307A1, “Remedial agent for osteoporosis” (priority 2000, published 2003).

Legend:
[1] = tested on: ovariectomized (OVX) rats; format: in vivo, rat; settings: 0.04 μg/kg per dose, subcutaneous, 5 times a week for 6 weeks; third lumbar vertebra
Protocol: Seven- to nine-week-old W-I female rats (Imamichi Institute for Animal Reproduction) were ovariectomized to remove both ovaries. From the following day, 1α,25-dihydroxyvitamin D3 was subcutaneously administered 5 times a week for 6 weeks in an amount of 0.01 to 0.04 μg/kg per dose. After the last administration, 24-hour urine was sampled from each rat and blood was drawn under ether anesthesia. The rats were then euthanized and their lumbar vertebrae were isolated. The lumbar bone mineral density was measured at the third lumbar vertebra site using a dual X-ray bone mineral densitometer (DCS-600, ALOKA). The blood and urinary calcium levels and the urinary creatinine level were measured with a HITACHI automatic analyzer (Model 7170, Hitachi). Statistical processing was carried out using a software package of Statistic Analysis System (SAS). A comparison between sham operation (sham) and ovariectomy (OVX) groups was made by an unpaired t-test, while a comparison between OVX and drug treatment groups or between sham and drug treatment groups was made by Dunnett's multiple test. A P-value less than 5% was defined as a significant difference.

[2] = tested on: ovariectomized (OVX) rats; test: Test in osteoporosis rat model (femur bone mineral density and blood Ca level); format: in vivo; settings: oral; for OVX-induced decrease in femur bone mineral density: every day for 8 weeks, vs OVX group, p<0.05, level remained as high as in the sham group; for blood calcium-increasing effect: in amounts where they suppressed the decrease in bone mineral density, 8 weeks, blood drawn 24 hours after last administration
Protocol: The compounds of the present invention were evaluated for their effects on bone mineral density and blood calcium (Ca) level in osteoporosis rat model. The following compounds were tested: 1α,3β-dihydroxy-20(S)-(3-ethyl-3-hydroxypentyl)-9,10-secopregna-5,7,10(19),16-tetraene from Example 11 (hereinafter referred to as “Compound l”) and 1α,3β-dihydroxy-20(S)-(5-ethyl-5-hydroxy-3-heptynyl)-9,10-secopregna-5,7,10(19),16-tetraene from Example 6 (hereinafter referred to as “Compound 2”).
Nine-month-old W-I female rats (Imamichi Institute for Animal Reproduction) were ovariectomized to remove both ovaries. From the following day, Compound 1 or Compound 2 was orally administered every day for 8 weeks. Compound 1 was given in an amount of 0.5 μg/kg, 1 μg/kg or 2 μg/kg per day in two divided doses, while Compound 2 was given in an amount of 0.125 μg/kg, 0.25 μg/kg or 0.5 μg/kg per day in two divided doses. Twenty-four hours after the last administration, blood was drawn from each rat under ether anesthesia. The rats were then euthanized and their femurs were isolated.
The femur bone mineral density was measured using a dual X-ray bone mineral densitometer (DCS-600EX, ALOKA). The blood calcium (Ca) level was measured with a HITACHI automatic analyzer (Model 7170, Hitachi). For comparison purposes, both groups of sham operation (sham) and ovariectomy (OVX; in which rats were ovariectomized only, not followed by administration of test compounds) were similarly assayed for their blood calcium (Ca) level and bone mineral density by isolating their femurs.
Statistical processing was carried out using a software package of Statistic Analysis System (SAS). A comparison between sham operation (sham) and ovariectomy (OVX) groups was made by an unpaired t-test, while a comparison between OVX and drug treatment groups was made by Dunnett's multiple test. A P-value less than 5% was defined as a significant difference.

SMILES: C=C1/C(=C\C=C2/CCC[C@]3(C)[C@@H]([C@H](C)CCCC(C)(C)O)CC[C@@H]23)C[C@@H](O)C[C@@H]1O [1α,25-dihydroxyvitamin D3]
- OVX-induced decrease in lumbar bone mineral density [1]: significantly suppressed

SMILES: C=C1/C(=C\C=C2/CCC[C@]3(C)C([C@@H](C)CCC(O)(CC)CC)=CCC23)C[C@@H](O)C[C@@H]1O (stereo partly drawn) [Compound 1, 1α,3β-dihydroxy-20(S)-(3-ethyl-3-hydroxypentyl)-9,10-secopregna-5,7,10(19),16-tetraene]
- OVX-induced decrease in femur bone mineral density ([2]; 1 μg/kg per day in two divided doses): significantly suppressed
- OVX-induced decrease in femur bone mineral density ([2]; 2 μg/kg per day in two divided doses): significantly suppressed
- blood calcium-increasing effect [2]: not observed

SMILES: C=C1/C(=C\C=C2/CCC[C@]3(C)C([C@@H](C)CCC#CC(O)(CC)CC)=CCC23)C[C@@H](O)C[C@@H]1O (stereo partly drawn) [Compound 2, 1α,3β-dihydroxy-20(S)-(5-ethyl-5-hydroxy-3-heptynyl)-9,10-secopregna-5,7,10(19),16-tetraene]
- OVX-induced decrease in femur bone mineral density ([2]; 0.125 μg/kg per day in two divided doses): significantly suppressed
- OVX-induced decrease in femur bone mineral density ([2]; 0.5 μg/kg per day in two divided doses): significantly suppressed
- blood calcium-increasing effect [2]: not observed
